Assay results from patent publication US4477664A, “Novel 1-(4-piperidiniobenzyl)-2,3-dioxopiperazine derivatives or acid addition salts thereof” (Toyama Chemical Co., Ltd., priority 1979, dated 1984).
In brackets after ≈: the same amount, converted by molar mass.

How the values were obtained:
HeLa S3 cells = assay: MIC value against HeLa S3 cells (microplate method); type: cell-based; settings: Homo sapiens, 96 h, 2×10^4 cells/ml, 4 days, Giemsa staining
From the text: (§1) a. MIC value against HeLa S3 cells and Ehrlich cells (microplate method) Number of cells: 2×10^4 cells/ml Culture medium: Eagle's MEM+20% calf embryonic serum Culture time: 4 days Judgement: Giemsa staining

[1] = system: Ehrlich ascites carcinoma cells; assay: Effect on Ehrlich carcinoma (i): intraperitoneal inoculation, mean survival days; type: in vivo, ICR-strain mice; settings: Mus musculus, ip, 168 h, once a day for 7 days, read-out: T/C (mean survival days)
Protocol: (i) Ehrlich ascites carcinoma cells (1×10^6 cells/head) were inoculated intraperitoneally into ICR-strain mice (female, 6 to 7 weeks old, each group consisting of 5 or 4 mice), and after 24 hours, the […] The effect thereof was judged from the mean survival days.
The test drugs were used in the form of a solution or suspension in a saline solution or a 0.3% carboxymethyl cellulose-containing saline solution. [formula]

Ehrlich cells = assay: MIC value against Ehrlich cells (microplate method); type: cell-based; settings: 96 h, 2×10^4 cells/ml, 4 days, Giemsa staining
From the text: as §1

Acute toxicity = settings: mouse, in vivo, ip
From the text: The test drugs were used in the form of a solution or suspension in a saline solution or a 0.3% carboxymethyl cellulose-containing saline solution.

[2] = system: Sarcoma 180 ascites cells; assay: Effect on Sarcoma 180 carcinoma: intraperitoneal inoculation, mean survival days; type: in vivo, ICR-strain mice; settings: 200 mg/kg, once a day for 7 days
Protocol: Sarcoma 180 ascites cells (1×10^6 cells/head) were inocualted intraperitoneally into ICR-strain mice (female, 6 weeks old, each group consisting of 4 or 5 mice), and after 24 hours, the intraperitoneal administration of a test drug was started, and effected once a day for 7 days. The effect thereof was judged from the mean survival days. The test drug was used in the form of a solution or suspension in a saline solution or a 0.3% carboxymethyl cellulose-containing saline solution. [formula]

[3] = system: Ehrlich ascites carcinoma cells; assay: Effect on Ehrlich carcinoma (ii): subcutaneous inoculation at inguinal region, mean tumor weight; type: in vivo, ICR-strain mice; settings: intraperitoneally, once a day for 5 days, judgement day 13
Protocol: (ii) Ehrlich ascites carcinoma cells (4×10^6 cells/head) were inoculated subcutaneously at the inguinal region into ICR-strain mice (female, 6 to 7 weeks old, each group consisting of 5 or 4 mice), and after 24 hours, the intraperitaneal or oral administration of a test drug was started and effected once a day for 5 days. The effect thereof was judged from the mean weight of tumor on the 13th or 15th day, respectively.
The test drug was used in the form of a solution or suspension in a saline solution or a 0.3% carboxymethyl cellulose-containing saline solution. [formula]

L-1210 ascites cells = assay: Effect on L-1210 leukemia (i): intraperitoneal inoculation, mean survival days; type: in vivo, BDF1-strain mice; settings: 50 mg/kg
Protocol: (i) L-1210 ascites cells (1×10^5 cells/head) were inoculated intraperitoneally into BDF1 -strain mice (female, 6 weeks old, each group consisting of 4 mice), and after 24 hours, the intraperitoneal administration of a test drug was started and effected once a day. The effect thereof was judged from the mean survival days. The test drug was used in the form of a solution or suspension in a saline solution or a 0.3% carboxymethyl cellulose-containing saline solution.
T/C was calculated in the same manner as in above b (i).

[4] = system: Ehrlich ascites carcinoma cells; assay: Effect on Ehrlich carcinoma (iii): subcutaneous inoculation at right armpit, mean tumor weight; type: in vivo, ICR-strain mice; settings: 100 mg/kg, orally, once a day for 7 days, 14th day
Protocol: (iii) Ehrlich ascites carcinoma cells (4×10^6 cells/head) were inoculated subcutaneously at the right armpit region into ICR-strain mice (female, 7 weeks old, each group consisting of 6 or 7 mice), and after 24 hours, the oral administration or subcutaneous administration at the dorsal region of a test drug was started, and effected once a day for 7 days. The effect thereof was judged from the mean weight of the tumor on the 14th day. The test drug was used in the form of a solution or suspension in a saline solution or a 0.3% carboxymethyl cellulose-containing saline solution.
T/C was calculated in the same manner as in above (ii).

[5] = intraperitoneal, once, male mice, observed for 7 days

Structure (SMILES) | MIC (HeLa S3 cells) [µg/mL] | response vs control in vivo at 100 mg/kg [1] [%] | MIC (Ehrlich cells) [µg/mL] | further results
CCCCCCN1CCN(Cc2ccc(N(CC)CC)c(Cl)c2)C(=O)C1=O [Compound 28] | 12.5 (≈ 31.7 µM) | 165 | 12.5 (≈ 31.7 µM) | response vs control in vivo at 40 mg/kg ([1]; 40 mg/kg): > 173%
O=C1C(=O)N(Cc2ccc(Nc3ccc([N+](=O)[O-])cn3)cc2)CCN1Cc1ccccc1 [Compound 3] | 3.13 to 6.25 (≈ 7.25 to 14.5 µM) | – | 6.25 (≈ 14.5 µM) | –
Nc1cccc(CN2CCN(Cc3ccc(Nc4ncccn4)cc3)C(=O)C2=O)n1 [Compound 10] | 1.56 to 3.13 (≈ 3.87 to 7.76 µM) | – | 12.5 (≈ 31 µM) | –
CCCCCCN1CCN(Cc2ccc(N(CC)CC)cc2Cl)C(=O)C1=O [Compound 30] | 3.13 (≈ 7.94 µM) | 152 | 3.13 (≈ 7.94 µM) | –
CCCCCCN1CCN(Cc2ccc(Nc3ccccn3)cc2)C(=O)C1=O [Compound 1] | 0.2 (≈ 0.526 µM) | – | 0.2 (≈ 0.526 µM) | LD50 at 168 h (Acute toxicity): > 500 mg/kg; response vs control in vivo at 200 mg/kg [1]: > 221%; T/C (mean survival days) [2]: > 151.6%; Survival Ratio in Days Shown in Parenthesis ([2]; 35 days): 2/4
CCN(CC)c1ccc(CNCCN2CCN(Cc3ccc(N(CC)CC)cc3)C(=O)C2=O)cc1 [Compound 40] | 12.5 (≈ 26.1 µM) | – | 12.5 (≈ 26.1 µM) | response vs control in vivo at 30 mg/kg ([1]; 30 mg/kg): 154%
O=C1C(=O)N(c2cnccn2)CCN1Cc1ccc(Nc2ncccn2)cc1 [Compound 8] | 0.78 (≈ 2.08 µM) | – | 0.39 (≈ 1.04 µM) | –
O=C1C(=O)N(Cc2ccc(Nc3ncccn3)cc2)CCN1CCc1ccccc1 [Compound 14] | 0.39 (≈ 0.971 µM) | > 179 | 0.39 (≈ 0.971 µM) | LD50 at 168 h (Acute toxicity; [5]): > 500 mg/kg
Nc1cnc(Nc2ccc(CN3CCN(Cc4ccccc4)C(=O)C3=O)cc2)nc1 [Compound 45] | 0.05 (≈ 0.124 µM) | – | 0.05 (≈ 0.124 µM) | –
O=C1C(=O)N(Cc2cnccn2)CCN1Cc1ccc(Nc2ncccn2)cc1 [Compound 9] | 1.56 to 3.13 (≈ 4.01 to 8.04 µM) | – | 6.25 (≈ 16 µM) | –
CCCCCCN1CCN(Cc2ccc(NC(=O)CCl)cc2)C(=O)C1=O [Compound 34] | 0.39 (≈ 1.03 µM) | > 142 | 0.39 (≈ 1.03 µM) | response vs control in vivo at 200 mg/kg [1]: 157%
O=C1C(=O)N(Cc2ccc(Nc3ccncn3)cc2)CCN1Cc1ccccc1 [Compound 20] | 0.78 (≈ 2.01 µM) | – | 1.56 (≈ 4.03 µM) | LD50 at 168 h (Acute toxicity; [5]): > 500 mg/kg
CCN(CC)c1ccc(CN2CCN(CCN)C(=O)C2=O)cc1 [Compound 37] | 25 (≈ 78.5 µM) | – | 25 (≈ 78.5 µM) | T/C (mean tumor weight) ([3]; 25 mg/kg): 54%; T/C (mean tumor weight) ([3]; 50 mg/kg): 52%; T/C (mean tumor weight) ([3]; 100 mg/kg): 65%
Cc1cc(Nc2ccc(CN3CCN(Cc4ccccc4)C(=O)C3=O)cc2)nc(C)c1N [Compound 44] | 0.78 (≈ 1.82 µM) | – | 0.78 (≈ 1.82 µM) | T/C (mean survival days) (L-1210 ascites cells; 3 administrations): 137%; LD50 at 168 h (Acute toxicity; [5]): > 200 mg/kg
CC(c1ccc(Nc2ncccn2)cc1)N1CCN(Cc2ccccc2)C(=O)C1=O (centres unmarked) [Compound 22] | 3.13 to 6.25 (≈ 7.8 to 15.6 µM) | – | 6.25 (≈ 15.6 µM) | –
Cc1ccc(Nc2ccc(CN3CCN(Cc4ccccc4)C(=O)C3=O)cc2)nc1 [Compound 25] | 0.39 (≈ 0.974 µM) | – | 0.39 (≈ 0.974 µM) | –
Cc1nc(Nc2ccc(CN3CCN(Cc4ccccc4)C(=O)C3=O)cc2)ccc1N [Compound 42] | < 0.05 | – | < 0.05 | T/C (mean survival days) (L-1210 ascites cells; 7 administrations): 148%; T/C (mean tumor weight) [4]: 54%; LD50 at 168 h (Acute toxicity; [5]): > 200 mg/kg; response vs control in vivo at 50 mg/kg ([1]; 50 mg/kg): 149%
O=C1C(=O)N(Cc2ccc(Nc3ncccn3)cc2)CCN1Cc1ccc(Nc2ncccn2)cc1 [Compound 23] | 6.25 (≈ 13 µM) | 159 | 6.25 (≈ 13 µM) | –
O=C1C(=O)N(Cc2ccc(Nc3ccccn3)cc2)CCN1Cc1ccccc1 [Compound 2] | 0.39 to 0.78 (≈ 1.01 to 2.02 µM) | > 192 | 0.39 to 0.78 (≈ 1.01 to 2.02 µM) | LD50 at 168 h (Acute toxicity; [5]): > 200 mg/kg
CCCCCCN1CCN(Cc2ccc(Nc3ccncc3)cc2)C(=O)C1=O [Compound 5] | 3.13 (≈ 8.23 µM) | – | 3.13 (≈ 8.23 µM) | –
